“Also recorded” adds a separate entry of the source.
How the values were obtained:
[1] = test system: Caspase 3; assay: Ac-DEVD-AFC caspase-3 protease assay of lung homogenate of RSV infected BALB/c mice; type: in vivo; settings: oral and subcutaneous DIM, FIG. 5A
Protocol: (§1) The Following Experimental BALB/c Groups and Treatment Protocol Using DIM were Studied: • 1. RSV infected positive control group, infected with RSV and injected subcutaneously (SC) once daily with DMSO/Phosphate Buffered Saline (PBS) vehicle. • 2. RSV infected, Low dose Parenteral DIM group (15 mg/kg/day), injected SC once daily with DIM suspension • 3. RSV infected, High dose DIM Group (150 mg/kg/day), injected SC once daily with DIM suspension • 4. RSV infected, orally treated DIM group (250 mg/kg/day from absorption enhanced DIM [Example 6.1]), added to powdered feed • 5. Uninfected negative control group, nasally administered vehicle only, and injected subcutaneously (SC) once daily with DMSO/PBS vehicle
(§2) Mouse treatment, infection and harvest. Intranasal application of RSV in BALB/c mice followed an established procedure (Bitko et al., 2005, Nat Med. 11(1):50-5) and causes predictable pulmonary disease and inflammation. For RSV infection, RSV stock was diluted such that each mouse was given 10^7 pfu (plaque forming unit) of the virus intranasally. […]

[2] = test system: chemically induced forms of breast cancer; settings: orally administered, animals; cited from earlier work
[3] = test system: Caspase-3; assay: Caspase-3 activation in RSV infected A549 cell culture; type: cell-based, human; settings: RSV infected A549 cells; DIM 70, 210, and 700 nM
[4] = test system: estrogen-dependent and independent breast cancer cells; settings: isolated DIM in cell culture; cited from earlier work
[5] = test system: RSV Long strain; assay: Pulmonary viral assay (pfu in lung homogenate) in RSV infected BALB/c mice; type: in vivo
Protocol: as §1
Animals, cells, and viruses. Pathogen-free 8-10 week old female BALB/c mice, weighing between 16 and 20 g, were purchased from Charles River Laboratories. All mice were housed in cages covered with barrier filters and are fed mouse chow and water ad libitum. HeLa cells are maintained in Eagle's minimal essential medium supplemented with glutamine, gentamicin, penicillin G, and 10% fetal bovine serum.
RSV stock. RSV Long strain was grown on HEp-2 monolayers (American Type Culture Collection, Manassas, Va.). The extracellular media containing liberated progeny virus was collected at about 70 hr. The virus was purified and concentrated by precipitation with polyethylene glycol (MW 8,000) and sucrose gradient centrifugation. The final preparation had infectious titer in the range of 10^8-10^9 pfu/ml and was stored frozen at −80° C. in small portions. All infectious viral titers (plaque forming units [pfu]) were determined by agarose plaque assay on HEp-2 monolayers with neutral red staining using standard procedures. Another suitable strain is the A2 strain of RSV (American Type Culture Collection).
Mouse treatment, infection and harvest. […]
(§3) Pulmonary viral assay and clinical measurements. […] Respiratory rates (breaths per min) were determined by counting over a period of 2-3 mins. […]

[6] = test system: RSV Long strain; assay: Respiratory rate in RSV infected BALB/c mice; type: in vivo; settings: oral, SC low dose and SC high dose DIM; 6 and 10 days pi; vs RSV-infected, untreated control mice; FIG. 6
Protocol: as §1, §2, §3

[7] = test system: apoptosis-specific nucleosomes; assay: Nucleosome ELISA in lung of RSV infected BALB/c mice; type: in vivo; settings: oral and subcutaneous DIM, FIG. 5B
Protocol: as §1, §2
Nucleosomes released in the cytoplasm during apoptosis were detected by a nucleosome ELISA assay kit (Calbiochem Nucleosome ELISA kit, Cat. No. QIA25, San Diego, Calif.) according to the manufacturer's protocol (User Protocol Q1A25 Rev. 28 Sep. 2005 RFH).

[8] = test system: Human Papilloma Virus (HPV) oncogene altered cervical cancer cell lines; settings: cited from earlier work

c1ccc2c(Cc3c[nH]c4ccccc34)c[nH]c2c1 [DIM, 3,3′-diindolylmethane]
apoptosis in mouse lung homogenate: activated Caspase 3 [1]: increased apoptosis in lung tissue homogenate; also recorded: increased levels of apoptosis-specific, activated Caspase 3 | tumor growth [2]: inhibits the growth of certain chemically induced forms of breast cancer | time of culture at which apoptosis specific Caspase-3 is activated [3]: less than 12 hrs | apoptosis effects [4]: apoptosis promoting effects | RSV growth in the lung / viral counts in lung tissue ([5]; DIM administered orally or parenterally, BALB/c mice): inhibit RSV growth in the lung; also recorded: significant reduction in viral counts in lung tissue | pulmonary viral count ([5]; SC administered DIM, 10 days pi, vs vehicle treated, RSV-infected controls, FIG. 4): significantly reduced pulmonary viral count | intrapulmonary replication of nasally administered RSV virus ([5]; oral 250 mg/kg/day and SC 15 and 150 mg/kg/day, 6 days post infection (pi), vs vehicle treated RSV-infected controls, FIG. 4): significantly reduced the intrapulmonary replication | respiratory rate [6]: normalized respiratory rate; also recorded: lower respiratory rate | apoptosis in mouse lung: apoptosis-specific nucleosomes [7]: increased presenence of apoptosis-specific nucleosomes | induction of apoptosis ([8]; HPV oncogene altered cervical cancer cell lines): specifically induce apoptosis | induction of markers of apoptosis compared with I3C ([8]; cell culture): more active than I3C

Source: US8552052B2, “Use of diindolylmethane-related indoles for the treatment and prevention of respiratory syncytial virus associated conditions” (BioResponse, L.L.C., priority 2004, dated 2013)
